Assay: Singlet oxygen (1O2) generation, DPBF scavenger under 635 nm laser
Conditions: 50 μg in 1.0 ml NMP, DPBF 10 μM, 635 nm laser 0.18 W/cm^2, absorbance at 415 nm
Protocol: Singlet Oxygen (^1O2) Generation. In a typical experiment, 50 μg of the monomer or Corrole-COF materials was suspended in 1 mL of N-methylpyrrolidone (NMP) (equilibrated with air at RT) containing 10 μM of singlet oxygen sensor 1,3-diphenylisobenzofuran (DPBF). The mixture solutions were irradiated under a 635 nm laser (0.18 W cm^−2). The characteristic UV-Vis absorption spectra of the DPBF were measured at 415 nm to determine the generation of ^1O2 every 1 min, in which the UV-Vis absorption spectra of samples were collected using a UV-1800 spectrophotometer (Shimadzu, Japan) with a 0.3 cm quartz cuvette at room temperature.
TPAPC-COF was evaluated for its ability to generate ^1O2 (FIGS. 8A and 7B). The photo-generating ^1O2 ability of TPAPC-COF under a 635 nm laser (0.18 W/cm^2) irradiation was investigated by using 1,3-diphenylisobenzofuran (DPBF) as a scavenger, and the process was monitored by time-dependent electronic absorption spectroscopy.

degradation efficiency (conversion) of DPBF: 56%
SMILES: Nc1ccc(-c2c3nc(c4ccc([nH]4)c(-c4ccc(N)cc4)c4ccc([nH]4)c(-c4ccc(N)cc4)c4ccc2[nH]4)C=C3)cc1 [H3TPAPC, 5,10,15-tris(p-aminophenyl)corrole]
